This is an account of results in patent US20050288503A1, “Novel compounds” (priority 2002, published 2005).

A value given as a limit tells only on which side of the number the result lay.

One assay deals with CSBP/p38 (Homo sapiens, UniProt Q16539). Description: CSBP/p38 Kinase Assay (32P transfer from ATP to EGFR-derived T669 peptide). Format: biochemical. Particulars: retested at 67 uM.
Sequence of CSBP/p38 (Q16539 whole entry): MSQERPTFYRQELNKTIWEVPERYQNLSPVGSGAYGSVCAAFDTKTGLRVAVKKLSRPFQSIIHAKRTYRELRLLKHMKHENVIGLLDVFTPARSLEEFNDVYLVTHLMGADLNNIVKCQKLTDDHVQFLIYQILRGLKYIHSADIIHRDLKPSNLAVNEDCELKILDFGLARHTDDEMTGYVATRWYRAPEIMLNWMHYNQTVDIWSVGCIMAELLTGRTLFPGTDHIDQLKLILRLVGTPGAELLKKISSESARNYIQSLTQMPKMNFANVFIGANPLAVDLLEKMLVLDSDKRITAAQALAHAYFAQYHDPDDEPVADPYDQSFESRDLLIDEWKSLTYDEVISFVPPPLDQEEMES
Take `Cn1cnc2c(N(C(N)=O)c3c(F)cccc3F)nc(-c3ccc(Cl)cc3)nc21` [Example 35, 1-[2-(4-chloro-phenyl)-9-methyl-9H-purin-6-yl]-1-(2,6-difluoro-phenyl)-urea]: the “activity on retesting at a higher concentration” value is “active”. The same measure, in the same setting: with `Cn1cnc2c(N(C(N)=O)c3c(F)cccc3F)nc(-c3cc(F)cc(F)c3)nc21` [Example 46, 1-(2,6-difluoro-phenyl)-1-[2-(3,5-difluoro-phenyl)-9-methyl-9H-purin-6-yl]-urea] the entry was “active”.

Still in this assay, the particulars now being: yeast-expressed, activated and purified p38; 0.17 mM ATP; T669 peptide; read-out: positive inhibitory activity in the CSBP/p38 kinase assay at.
Take `Fc1ccccc1-c1nc(Nc2c(F)cccc2F)c2ncn(Cc3ccccc3)c2n1` [Example 23]: the IC50 was below 50 µM. Still for that read-out and setting: as for `CN(C)CCn1cnc2c(Nc3c(F)cccc3F)nc(-c3ccccc3F)nc21` [Example 22, (2,6-difluoro-phenyl)-[9-(2-dimethylamino-ethyl)-2-(2-fluoro-phenyl)-9H-purin-6-yl]-amine], the figure is below 50 µM; as for `Cc1ccc(-c2nc(Nc3c(F)cccc3F)c3ncn(C)c3n2)cc1` [Example 14, (2,6-difluoro-phenyl)-(9-methyl-2-p-tolyl-9H-purin-6-yl)-amine], below 50 µM; as for `Cn1cnc2c(Nc3c(F)cccc3F)nc(-c3ccc(F)cc3F)nc21` [Example 19, (2,6-difluoro-phenyl)-[2-(2,4-difluoro-phenyl)-9-methyl-9H-purin-6 yl]-amine], below 50 µM. With `Cn1cnc2c(Nc3c(F)cccc3F)nc(-c3ccccc3Cl)nc21` [Example 11, [2-(2-chloro-phenyl)-9-methyl-9H-purin-6-yl]-(2,6-difluoro-phenyl)-amine], the IC50 is below 50 µM. `Cn1cnc2c(Nc3c(F)cccc3F)nc(-c3ccccc3F)nc21` [Example 17, (2,6-difluoro-phenyl)-[2-(2-fluoro-phenyl)-9-methyl-9H-purin-6-yl]-amine]: the IC50 was below 50 µM.
